According to DBAASP:
In brackets after ≈: the same amount, converted by molar mass. Several values for one entry are separate records, joined by “and”; a condition that tells them apart may be missing. Equal values may be shown once. Blank lines part the entries; values can stand above or below the compound they belong to.

Columns and labels:
Assay in all cases: ≥ marks a high value that may be exact or a test limit, other limits are often not marked, values filed in µg/mL are converted to µM
[1] = tested on: Staphylococcus aureus MRSA-16
[2] = tested on: Escherichia coli ATCC 25922
[3] = tested on: Staphylococcus aureus ATCC 25923
[4] = tested on: Staphylococcus aureus MRSA-G
[5] = tested on: Salmonella enterica subsp. enterica serovar Typhimurium ATCC 14028
[6] = tested on: Pseudomonas aeruginosa PA006
[7] = tested on: Pseudomonas aeruginosa Pa4-SA2
[8] = tested on: Klebsiella pneumoniae ATCC 700603
[9] = tested on: Staphylococcus aureus ATCC 29313
[10] = tested on: Pseudomonas aeruginosa PAO1
[11] = tested on: Pseudomonas aeruginosa ATCC 27853
[12] = tested on: Pseudomonas aeruginosa Pa1-SA2
[13] = tested on: Staphylococcus aureus ATCC 9144
[14] = tested on: Pseudomonas aeruginosa ATCC 25668
Escherichia coli = tested on: Escherichia coli
Acinetobacter sp. = tested on: Acinetobacter sp.
[15] = tested on: Bacillus subtilis ATCC 6633
[16] = tested on: Escherichia coli ATCC 11775
[17] = tested on: Xanthomonas vesicatoria 687.3
Escherichia coli D22 = tested on: Escherichia coli D22
Neurospora crassa = tested on: Neurospora crassa
[18] = tested on: Pseudomonas syringae pv. syringae
Pseudomonas syringae = tested on: Pseudomonas syringae
[19] = tested on: Clavibacter michiganensis subsp. michiganensis
Botrytis cinerea = tested on: Botrytis cinerea
[20] = tested on: Pseudomonas syringae pv. phaseolicola
[21] = tested on: Pseudomonas syringae pv. Valerianella
Fusarium oxysporum = tested on: Fusarium oxysporum
Alternaria dauci = tested on: Alternaria dauci
Fusarium oxysporum L = tested on: Fusarium oxysporum L
[22] = tested on: Pseudomonas syringae pv. Pisi
Bacillus subtilis = tested on: Bacillus subtilis
Stemphylium sp. = tested on: Stemphylium sp.
Alternaria brassicicola = tested on: Alternaria brassicicola
[23] = tested on: Xanthomonas vesicatoria B229RI
Aerococcus viridans = tested on: Aerococcus viridans
Trichoderma viride = tested on: Trichoderma viride
Fusarium oxysporum M = tested on: Fusarium oxysporum M
Staphylococcus aureus = tested on: Staphylococcus aureus
Escherichia coli 1106 = tested on: Escherichia coli 1106
Fusarium culmorum = tested on: Fusarium culmorum
Fusarium haematococcum = tested on: Fusarium haematococcum
Micrococcus luteus = tested on: Micrococcus luteus
Aspergillus fumigatus = tested on: Aspergillus fumigatus
Escherichia coli D31 = tested on: Escherichia coli D31
Salmonella typhimurium = tested on: Salmonella typhimurium
[24] = tested on: Xanthomonas campestris pv. campestris
[25] = tested on: Pseudomonas syringae pv. Maculicola
[26] = tested on: Trichophyton mentagrophytes
[27] = tested on: Cryptococcus neoformans L30
[28] = tested on: Cryptococcus neoformans L26
Trichophyton rubrum = tested on: Trichophyton rubrum
Candida albicans 01U = tested on: Candida albicans 01U
Candida albicans 38U = tested on: Candida albicans 38U
Candida parapsilosis = tested on: Candida parapsilosis

Compound: CC[C@H](C)[C@H](NC(=O)[C@H](C)NC(=O)[C@H](CCCCN)NC(=O)[C@@H](NC(=O)CNC(=O)CNC(=O)[C@H](Cc1c[nH]c2ccccc12)NC(=O)[C@H](Cc1ccccc1)NC(=O)[C@H](CCCCN)NC(=O)[C@H](CCCCN)NC(=O)[C@H](Cc1ccccc1)NC(=O)[C@@H](N)Cc1ccccc1)C(C)C)C(=O)N[C@@H](Cc1ccccc1)C(=O)N[C@@H](CCCCN)C(=O)NCC(=O)N[C@@H](C)C(=O)N[C@@H](CCCN=C(N)N)C(=O)N[C@@H](CCCCN)C(=O)NCC(=O)N[C@@H](Cc1c[nH]c2ccccc12)C(=O)N[C@@H](CCCCN)C(=O)O [FFKKFWGGVKAIFKGARKGWK]
MIC [1]: 4 µM (≈ 9.95 µg/mL) | MIC [2]: 2 µM and > 1 µM | MIC [3]: 4 µM and > 2 µM | MIC [4]: 4 µM (≈ 9.95 µg/mL)

Compound: CC[C@H](C)[C@H](NC(=O)[C@H](CCCCN)NC(=O)CNC(=O)[C@H](CCSC)NC(=O)[C@H](C)NC(=O)[C@H](Cc1cnc[nH]1)NC(=O)[C@H](C)NC(=O)[C@@H](NC(=O)[C@H](CC(C)C)NC(=O)[C@H](CCC(N)=O)NC(=O)[C@H](CCCN=C(N)N)NC(=O)CNC(=O)[C@H](C)NC(=O)[C@H](CC(=O)O)NC(=O)[C@H](CCCCN)NC(=O)[C@@H](NC(=O)[C@@H](NC(=O)[C@H](CC(=O)O)NC(=O)[C@H](Cc1ccccc1)NC(=O)[C@@H](NC(=O)CN)C(C)C)[C@@H](C)CC)[C@@H](C)CC)C(C)C)C(=O)N[C@@H](C)C(=O)N[C@@H](CCC(=O)O)C(=O)N[C@@H](CCCCN)C(=O)N[C@H](C(N)=O)C(C)C [GVFDIIKDAGRQLVAHAMGKIAEKV]
MIC [5]: > 300 µM | MIC [6]: 12 µM (≈ 32 µg/mL) | MIC [2]: 300 µM (≈ 800 µg/mL) | MIC [7]: ≥ 48 µM | MIC [8]: > 300 µM | MIC [9]: ≥ 300 µM | MIC [10]: 192 µM (≈ 512 µg/mL) | MIC [11]: > 192 µM | MIC [12]: ≥ 96 µM

Compound: CC[C@H](C)[C@@H]1NC(=O)[C@H](CCCCN)NC(=O)[C@H]([C@@H](C)CC)NC(=O)[C@H](CCC(N)=O)NC(=O)[C@H](CCCN=C(N)N)NC(=O)[C@@H](NC(=O)[C@@H](NC(=O)[C@H](CO)NC(=O)[C@@H](N)CCCN=C(N)N)C(C)C)CSSC[C@@H](C(=O)N[C@H](C(=O)N[C@@H](CC(N)=O)C(=O)N[C@@H](CCCN=C(N)N)C(=O)N2CCC[C@H]2C(=O)N[C@@H](Cc2ccc(O)cc2)C(=O)O)[C@@H](C)O)NC(=O)[C@H](CCCCN)NC(=O)[C@H](Cc2ccc(O)cc2)NC(=O)[C@H](Cc2ccc(O)cc2)NC(=O)[C@@H]2CSSC[C@H](NC1=O)C(=O)N[C@@H](CCCN=C(N)N)C(=O)N[C@@H](CCCN=C(N)N)C(=O)N[C@@H](CCCN=C(N)N)C(=O)NCC(=O)NCC(=O)N2 [RSVCRQIKICRRRGGCYYKCTNRPY]
MIC [17]: 2.12 µM (≈ 6.53 µg/mL) | MIC (Escherichia coli D22): 30 µM (≈ 92.3 µg/mL) | MIC (Neurospora crassa): 8.49 µM (≈ 26.1 µg/mL) | MIC [18]: 18.2 µM (≈ 55.9 µg/mL) | MIC (Pseudomonas syringae): 2.12 µM (≈ 6.53 µg/mL) | MIC [19]: 9.49 µM (≈ 29.2 µg/mL) | MIC (Botrytis cinerea): 8.49 µM (≈ 26.1 µg/mL) | MIC [20]: 2.12 µM (≈ 6.53 µg/mL) | MIC [21]: 18.2 µM (≈ 55.9 µg/mL) | MIC (Fusarium oxysporum): 8.49 µM (≈ 26.1 µg/mL) | MIC (Alternaria dauci): 11.3 µM (≈ 34.8 µg/mL) | MIC (Fusarium oxysporum L): 2.83 µM (≈ 8.7 µg/mL) | MIC [22]: 9.49 µM (≈ 29.2 µg/mL) | MIC (Bacillus subtilis): 2.12 µM (≈ 6.53 µg/mL) | MIC (Stemphylium sp.): 5.66 µM (≈ 17.4 µg/mL) | MIC (Alternaria brassicicola): 4.24 µM (≈ 13.1 µg/mL) | MIC [23]: 2.12 µM (≈ 6.53 µg/mL) | MIC (Aerococcus viridans): 0.424 µM (≈ 1.31 µg/mL) | MIC (Trichoderma viride): 8.49 µM (≈ 26.1 µg/mL) | MIC (Fusarium oxysporum M): 2.83 µM (≈ 8.7 µg/mL) | MIC (Staphylococcus aureus): 21.2 µM (≈ 65.3 µg/mL) | MIC (Escherichia coli 1106): 9.49 µM (≈ 29.2 µg/mL) | MIC (Fusarium culmorum): 4.24 µM (≈ 13.1 µg/mL) | MIC (Fusarium haematococcum): 8.49 µM (≈ 26.1 µg/mL) | MIC (Micrococcus luteus): 0.949 µM (≈ 2.92 µg/mL) | MIC (Aspergillus fumigatus): ≥ 35.4 µM | MIC (Escherichia coli D31): 4.24 µM (≈ 13.1 µg/mL) | MIC (Salmonella typhimurium): 4.24 µM (≈ 13.1 µg/mL) | MIC [24]: 4.24 µM (≈ 13.1 µg/mL) | MIC [25]: 4.24 µM (≈ 13.1 µg/mL)

More lines, now with the values ahead:

MIC [13]: 2.7 µM (≈ 4 µg/mL) | MIC [14]: 5.41 µM (≈ 7.99 µg/mL) | MIC (Escherichia coli): 2.7 µM (≈ 4 µg/mL) | MIC (Acinetobacter sp.): 21.6 µM (≈ 32 µg/mL) | MIC [15]: 5.41 µM (≈ 7.99 µg/mL) | MIC [16]: 0.676 µM (≈ 0.999 µg/mL)
Compound: CC[C@H](C)[C@H](N)C(=O)N[C@@H](CCCCN)C(=O)N[C@@H](Cc1c[nH]c2ccccc12)C(=O)N[C@@H](C)C(=O)NCC(=O)N[C@@H](CCCCN)C(=O)N[C@@H](CC(C)C)C(=O)N[C@@H](Cc1ccccc1)C(=O)N[C@@H](CCCCN)C(=O)N[C@@H](CC(C)C)C(=O)N[C@@H](Cc1ccccc1)C(=O)N[C@@H](CCCCN)C(N)=O [IKWAGKLFKLFK]

MIC [26]: ≥ 173 µM | MIC [27]: ≥ 173 µM | MIC [28]: ≥ 173 µM | MIC (Trichophyton rubrum): 21.6 µM (≈ 32 µg/mL) | MIC (Candida albicans 01U): 21.6 µM (≈ 32 µg/mL) | MIC (Candida albicans 38U): 21.6 µM (≈ 32 µg/mL) | MIC (Candida parapsilosis): ≥ 173 µM
Compound: CC[C@H](C)[C@H](NC(=O)[C@H](CC(C)C)NC(=O)[C@H](CCC(=O)O)NC(=O)[C@H](CO)NC(=O)[C@H](CCCN=C(N)N)NC(=O)[C@@H](N)CO)C(=O)N[C@H](C(=O)N[C@@H](Cc1cnc[nH]1)C(=O)N[C@@H](CCC(N)=O)C(=O)N[C@@H](CCCN=C(N)N)C(=O)N[C@@H](CCSC)C(=O)N[C@@H](CCCCN)C(N)=O)C(C)C [SRSELIVHQRMK]
